Assay results as given in the supplement of paper PMC10307832.

What was measured:
Assay in all cases: relative viability (nuclei count vs DMSO), 5 days (fraction); higher = more cells survive
LCLC-103H = tested on: LCLC-103H
In short: (§1)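 One day after seeding in 1536-well plates, lung cancer cell lines were dosed by pin tool. Dosing was either single-drug or a fixed anchor-drug dose plus five library-drug doses (not always all listed) in √10 steps. After 5 days, nuclei were stained in one fix-and-stain step and counted on 4× images, and relative viability is the nuclei count of treated wells over that of vehicle wells, given as the median of duplicate plates.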

NCI-H358 = tested on: NCI-H358
In short: as §1

NCI-H2347 = tested on: NCI-H2347
In short: as §1

LU99A = tested on: LU99A
In short: as §1

NCI-H520 = tested on: NCI-H520
In short: as §1

ABC-1 = tested on: ABC-1
In short: as §1

NCI-H2126 = tested on: NCI-H2126
In short: as §1

ChaGo-K-1 = tested on: ChaGo-K-1
In short: as §1

NCI-H1944 = tested on: NCI-H1944
In short: as §1

NCI-H1395 = tested on: NCI-H1395
In short: as §1

NCI-H322M = tested on: NCI-H322M
In short: as §1

SK-LU-1 = tested on: SK-LU-1
In short: as §1

RERF-LC-KJ = tested on: RERF-LC-KJ
In short: as §1

NCI-H1755 = tested on: NCI-H1755
In short: as §1

HCC-827 = tested on: HCC-827
In short: as §1

NCI-H1666 = tested on: NCI-H1666
In short: as §1

NCI-H1793 = tested on: NCI-H1793
In short: as §1

CAL-12T = tested on: CAL-12T
In short: as §1

LXF-289 = tested on: LXF-289
In short: as §1

NCI-H3122 = tested on: NCI-H3122
In short: as §1

HCC-44 = tested on: HCC-44
In short: as §1

Cc1cn(-c2cc(NC(=O)c3ccc(C)c(Nc4nccc(-c5cccnc5)n4)c3)cc(C(F)(F)F)c2)cn1 [Nilotinib] + O=C(CCCCCCC(=O)Nc1ccccc1)NO [Vorinostat] (partner 1 µM)
relative viability (LCLC-103H; first compound 0.001 µM): 0.74 | relative viability (LCLC-103H; first compound 0.003162 µM): 0.823 | relative viability (LCLC-103H; first compound 0.01 µM): 0.858 | relative viability (LCLC-103H; first compound 0.03162 µM): 0.691 | relative viability (LCLC-103H; first compound 0.1 µM): 0.433 | relative viability (NCI-H358; first compound 0.001 µM): 0.601 | relative viability (NCI-H358; first compound 0.003162 µM): 0.747 | relative viability (NCI-H358; first compound 0.01 µM): 0.834 | relative viability (NCI-H358; first compound 0.03162 µM): 0.411 | relative viability (NCI-H358; first compound 0.1 µM): 0.424 | relative viability (NCI-H2347; first compound 0.001 µM): 0.601 | relative viability (NCI-H2347; first compound 0.003162 µM): 0.516 | relative viability (NCI-H2347; first compound 0.01 µM): 0.712 | relative viability (NCI-H2347; first compound 0.03162 µM): 0.495 | relative viability (NCI-H2347; first compound 0.1 µM): 0.431 | relative viability (LU99A; first compound 0.001 µM): 0.429 | relative viability (LU99A; first compound 0.003162 µM): 0.506 | relative viability (LU99A; first compound 0.01 µM): 0.468 | relative viability (LU99A; first compound 0.03162 µM): 0.411 | relative viability (LU99A; first compound 0.1 µM): 0.353 | relative viability (NCI-H520; first compound 0.001 µM): 0.584 | relative viability (NCI-H520; first compound 0.003162 µM): 0.79 | relative viability (NCI-H520; first compound 0.01 µM): 0.81 | relative viability (NCI-H520; first compound 0.03162 µM): 0.617 | relative viability (NCI-H520; first compound 0.1 µM): 0.699 | relative viability (ABC-1; first compound 0.001 µM): 1.07 | relative viability (ABC-1; first compound 0.003162 µM): 1.03 | relative viability (ABC-1; first compound 0.01 µM): 1.11 | relative viability (ABC-1; first compound 0.03162 µM): 1.1 | relative viability (ABC-1; first compound 0.1 µM): 0.754 | relative viability (NCI-H2126; first compound 0.001 µM): 0.754 | relative viability (NCI-H2126; first compound 0.003162 µM): 0.888 | relative viability (NCI-H2126; first compound 0.01 µM): 0.864 | relative viability (NCI-H2126; first compound 0.03162 µM): 0.764 | relative viability (NCI-H2126; first compound 0.1 µM): 0.476 | relative viability (ChaGo-K-1; first compound 0.001 µM): 0.654 | relative viability (ChaGo-K-1; first compound 0.003162 µM): 0.979 | relative viability (ChaGo-K-1; first compound 0.01 µM): 0.804 | relative viability (ChaGo-K-1; first compound 0.03162 µM): 0.733 | relative viability (ChaGo-K-1; first compound 0.1 µM): 0.4 | relative viability (NCI-H1944; first compound 0.001 µM): 0.558 | relative viability (NCI-H1944; first compound 0.003162 µM): 0.795 | relative viability (NCI-H1944; first compound 0.01 µM): 0.671 | relative viability (NCI-H1944; first compound 0.03162 µM): 0.481 | relative viability (NCI-H1944; first compound 0.1 µM): 0.457 | relative viability (NCI-H1395; first compound 0.001 µM): 0.728 | relative viability (NCI-H1395; first compound 0.01 µM): 0.616 | relative viability (NCI-H1395; first compound 0.03162 µM): 0.59 | relative viability (NCI-H1395; first compound 0.1 µM): 0.473 | relative viability (NCI-H322M; first compound 0.001 µM): 0.896 | relative viability (NCI-H322M; first compound 0.003162 µM): 0.68 | relative viability (NCI-H322M; first compound 0.01 µM): 0.962 | relative viability (NCI-H322M; first compound 0.03162 µM): 0.848 | relative viability (NCI-H322M; first compound 0.1 µM): 0.913 | relative viability (SK-LU-1; first compound 0.001 µM): 0.628 | relative viability (SK-LU-1; first compound 0.003162 µM): 0.756 | relative viability (SK-LU-1; first compound 0.01 µM): 0.865 | relative viability (SK-LU-1; first compound 0.03162 µM): 0.632 | relative viability (SK-LU-1; first compound 0.1 µM): 0.692 | relative viability (RERF-LC-KJ; first compound 0.001 µM): 0.624 | relative viability (RERF-LC-KJ; first compound 0.003162 µM): 0.698 | relative viability (RERF-LC-KJ; first compound 0.01 µM): 0.734 | relative viability (RERF-LC-KJ; first compound 0.03162 µM): 0.568 | relative viability (RERF-LC-KJ; first compound 0.1 µM): 0.453 | relative viability (NCI-H1755; first compound 0.001 µM): 0.605 | relative viability (NCI-H1755; first compound 0.003162 µM): 0.755 | relative viability (NCI-H1755; first compound 0.01 µM): 0.695 | relative viability (NCI-H1755; first compound 0.03162 µM): 0.59 | relative viability (NCI-H1755; first compound 0.1 µM): 0.595 | relative viability (HCC-827; first compound 0.001 µM): 0.835 | relative viability (HCC-827; first compound 0.003162 µM): 0.983 | relative viability (HCC-827; first compound 0.03162 µM): 0.857 | relative viability (HCC-827; first compound 0.1 µM): 0.822 | relative viability (NCI-H1666; first compound 0.001 µM): 0.942 | relative viability (NCI-H1666; first compound 0.003162 µM): 1.11 | relative viability (NCI-H1666; first compound 0.01 µM): 1.17 | relative viability (NCI-H1666; first compound 0.03162 µM): 1.11 | relative viability (NCI-H1666; first compound 0.1 µM): 1.17 | relative viability (NCI-H1793; first compound 0.001 µM): 0.64 | relative viability (NCI-H1793; first compound 0.003162 µM): 0.841 | relative viability (NCI-H1793; first compound 0.01 µM): 0.688 | relative viability (NCI-H1793; first compound 0.03162 µM): 0.386 | relative viability (NCI-H1793; first compound 0.1 µM): 0.257 | relative viability (CAL-12T; first compound 0.001 µM): 0.673 | relative viability (CAL-12T; first compound 0.003162 µM): 0.704 | relative viability (CAL-12T; first compound 0.01 µM): 0.994 | relative viability (CAL-12T; first compound 0.03162 µM): 0.573 | relative viability (CAL-12T; first compound 0.1 µM): 0.566 | relative viability (LXF-289; first compound 0.001 µM): 0.693 | relative viability (LXF-289; first compound 0.003162 µM): 0.994 | relative viability (LXF-289; first compound 0.01 µM): 0.882 | relative viability (LXF-289; first compound 0.03162 µM): 0.869 | relative viability (LXF-289; first compound 0.1 µM): 0.534 | relative viability (NCI-H3122; first compound 0.001 µM): 0.85 | relative viability (NCI-H3122; first compound 0.003162 µM): 1.47 | relative viability (NCI-H3122; first compound 0.01 µM): 1.07 | relative viability (NCI-H3122; first compound 0.03162 µM): 0.89 | relative viability (NCI-H3122; first compound 0.1 µM): 0.851 | relative viability (HCC-44; first compound 0.001 µM): 1.07 | relative viability (HCC-44; first compound 0.003162 µM): 1.06 | relative viability (HCC-44; first compound 0.01 µM): 1.09 | relative viability (HCC-44; first compound 0.1 µM): 1.07
